# Results as given in US8389508B2 (Glaxo Group Limited, priority 2010, dated 2013).
# Structures can show the parent of a compound that is named as a salt.
# Tests used:
# [1] = biological target: T1, human Endothelial Differentiation Gene 1 (EDG1), S1P1 receptor (Homo sapiens, UniProt P21453); assay: S1P1 Assay (Tango EDG1-bla/U2OS beta-lactamase reporter, agonist dose response); format: cell-based; conditions: EDG1-bla/U2OS cells, blue/green emission ratio, 10 point dose response, free base or salt form; read-out: pEC50 (S1P1 assay) (converted)
# T1 construct: TEV protease site; Gal4-VP16 transcription factor; expressed in transfected cells; host or cells: EDG1-bla/U2OS (Tango GPCR-bla U2OS parental cell line)
# Protocol: Recombinant EDG1-bla/U2OS cells (contain the human Endothelial Differentiation Gene 1 (EDG1) linked to a TEV protease site and a Gal4-VP16 transcription factor stably integrated into the Tango GPCR-bla U2OS parental cell line) were harvested from growth medium and passaged into assay medium (Invitrogen Freestyle Expression Medium). The cells were starved for 24 hours at 37° C., 5% CO2, harvested and resuspended in assay medium at a density of ˜200,000 cells/ml. All test compounds were dissolved in DMSO at a concentration of 10 mM and were prepared in 100% DMSO to provide 10 point dose response curves. Test compounds in the free base or in a salt form were prepared by Velocity11 Bravo automation (Agilent) were added to wells in columns 2-11 and 13-22; DMSO was added to wells in columns 12 and 23 as unstimulated controls and assay medium was added to wells in columns 1 and 24 as cell-free controls. An S1P1 agonist was added to wells in row 2, columns 2-11 as stimulated controls and test compounds were added to wells in row 2, columns 13-22 and rows 3-15, columns 2-11/13-22 (row 1 and 16 were empty and not used). Compounds in solution were added to the assay plate (Greiner 781090) using an Echo (Labcyte) dose-response program (50 nl/well). The unstimulated and cell-free controls were loaded with 50 nl/well pure DMSO to ensure that the DMSO concentration was constant across the plate for all assays. 50 μl of the cell suspension was added to each well in columns 2-23 of the plate (˜10,000 cells per well). 50 μl of assay medium was added to each well in the cell-free controls (columns 1 and 24). The cells were incubated overnight at 37° C./5% CO2.
# (§1) 10 μl of 6× substrate mixture (LiveBLAzer™-FRET B/G substrate (CCF4-AM) Cat # K1096 from Invitrogen, Inc.) was added to each well using Bravo automation and the plates incubated at room temperature for 2 h in the dark. The plate was finally read on EnVision using one excitation channel (409 nm) and two emission channels (460 nm and 530 nm).
# (§2) The blue/green emission ratio (460 nm/530 nm) was calculated for each well, by dividing the background-subtracted Blue emission values by the background-subtracted Green emission values. The dose response curve is based on sigmoidal dose-response model. All ratio data was normalized based upon the maximum emission ratio of positive control and minimum emission ratio of negative control (DMSO) on each plate. The intrinsic activity (IA) of each compound is defined as relative response normalised to a reference compound, whose maximum response is defined as 100% after curve fitting.
# [2] = biological target: T2, human Endothelial Differentiation G-protein Coupled Receptor 3 (EDG3), S1P3 receptor (Homo sapiens, UniProt Q99500); assay: S1P3 Assay (GeneBLAzer EDG3-Ga15-NFAT-bla HEK 293T beta-lactamase reporter, agonist dose response); format: cell-based; conditions: EDG3-Ga15-NFAT-bla HEK 293T cells, blue/green emission ratio, 10 point dose response, free base or salt form; read-out: pEC50 (S1P3 assay) (converted)
# T2 construct: expressed in transfected cells; host or cells: GeneBLAzer EDG3-Ga15-NFAT-bla HEK 293T
# Protocol: GeneBLAzer EDG3-Ga15-NFAT-bla HEK 293T cells (contain the human Endothelial Differentiation G-protein Coupled Receptor 3 (EDG3) and a beta-lactamase reporter gene under control of a NFAT response element and a promiscuous G Protein, Ga15, stably integrated into the GeneBLAzer Ga15-NFAT-bla HEK 293T cell line) were harvested from growth medium and suspended in assay medium (90% DMEM, 10% Charcoal-stripped FBS, 0.1 mM NEAA, 25 mM HEPES (pH 7.3), 100 U/ml penicillin, 100 μg/ml streptomycin) at a density of […]. All test compounds were dissolved in DMSO at a concentration of 10 mM and were prepared in 100% DMSO to provide 10 point dose response curves. Test compounds in the free base or in a salt form were prepared by Velocity 11 Bravo automation (Agilent) were added to wells in columns 2-11 and 13-22; DMSO was added to wells in columns 12 and 23 as unstimulated controls and assay medium was added to wells in columns 1 and 24 as cell-free controls. An S1P3 agonist was added to wells in row 2, columns 2-11 as stimulated controls and test compounds were added to wells in row 2, columns 13-22 and rows 3-15, columns 2-11/13-22 (row 1 and 16 were empty and not used). Compounds in solution were added to the assay plate (Greiner 781090) using an Echo (Labcyte) dose-response program (50 nl/well). The unstimulated and cell-free controls were loaded with 50 nl/well pure DMSO to ensure that the DMSO concentration was constant across the plate for all assays.
# 50 μl of the cell suspension was added to each well in columns 2-23 of the plate (˜10,000 cells per well). 50 μl of assay medium was added to each well in the cell-free controls (columns 1 and 24). The cells were incubated overnight at 37° C./5% CO2.
# as §1, §2
# T1 sequence (P21453 whole entry, the tested form may be a part): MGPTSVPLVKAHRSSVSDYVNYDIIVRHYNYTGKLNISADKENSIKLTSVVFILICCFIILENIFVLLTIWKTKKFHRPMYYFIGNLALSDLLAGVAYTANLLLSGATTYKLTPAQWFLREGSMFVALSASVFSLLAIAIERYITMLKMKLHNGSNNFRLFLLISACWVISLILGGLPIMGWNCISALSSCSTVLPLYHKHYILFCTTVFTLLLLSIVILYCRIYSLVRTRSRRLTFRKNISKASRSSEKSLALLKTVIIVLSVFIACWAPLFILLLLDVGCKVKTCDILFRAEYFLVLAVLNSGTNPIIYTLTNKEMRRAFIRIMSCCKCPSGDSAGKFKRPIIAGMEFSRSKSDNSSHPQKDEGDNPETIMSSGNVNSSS
# T2 sequence (Q99500 whole entry): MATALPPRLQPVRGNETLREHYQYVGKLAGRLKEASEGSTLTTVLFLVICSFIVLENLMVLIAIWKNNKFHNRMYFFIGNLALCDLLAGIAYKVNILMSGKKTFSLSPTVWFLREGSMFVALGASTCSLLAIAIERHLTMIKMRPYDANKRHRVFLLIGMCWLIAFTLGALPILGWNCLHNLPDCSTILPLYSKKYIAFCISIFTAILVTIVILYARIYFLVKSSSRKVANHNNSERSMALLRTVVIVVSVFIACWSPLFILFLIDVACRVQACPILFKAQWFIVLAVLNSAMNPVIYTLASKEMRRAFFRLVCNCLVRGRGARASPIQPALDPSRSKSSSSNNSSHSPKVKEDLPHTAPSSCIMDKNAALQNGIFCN
EC50 [1] [nM],EC50 [2] [nM],Structure (SMILES)
≤ 10,> 10000,CCc1c(CN2CCC[C@H](C(=O)O)C2)cccc1-c1nnc(-c2ccc(OC(C)C)c(Cl)c2)s1 [Example 47]
≤ 10,> 3160,"Cc1c(CCN2CCC(C(=O)O)CC2)cccc1-c1nnc(-c2ccc(OC(C)C)c(Cl)c2)s1 [Example 58, 1-{2-[3-(5-{3-chloro-4-[(1-methylethyl)oxy]phenyl}-1,3,4-thiadiazol-2-yl)-2-methylphenyl]ethyl}-4-piperidinecarboxylic acid]"
< 1,> 3160,"CCc1c(CN2CC(C(=O)O)C2)cccc1-c1cnc(-c2ccc(OC(C)C)c(C(F)(F)F)c2)s1 [Example 31, 1-[(2-ethyl-3-{2-[4-[(1-methylethyl)oxy]-3-(trifluoromethyl)phenyl]-1,3-thiazol-5-yl}phenyl)methyl]-3-azetidinecarboxylic acid]"
< 1,> 3160,CCc1c(CCN2CCC[C@H](C(=O)O)C2)cccc1-c1nnc(-c2ccc(OC(C)C)c(Cl)c2)s1 [Example 57]
≤ 10,> 3160,"CCc1c(CCN2CCC[C@H]2C(=O)O)cccc1-c1nsc(-c2ccc(OC(C)C)c(Cl)c2)n1 [Example 65, 1-{2-[3-(5-{3-chloro-4-[(1-methylethyl)oxy]phenyl}-1,2,4-thiadiazol-3-yl)-2-ethylphenyl]ethyl}-L-proline trifluoroacetate]"
< 100,> 10000,CCc1c(CCN2CCC[C@H]2C(=O)O)cccc1-c1nnc(-c2ccc(OC(C)C)c(Cl)c2)s1 [Example 52]
< 1,> 3160,"CCc1c(CN2CCC(C(=O)O)CC2)cccc1-c1cnc(-c2ccc(OC(C)C)c(C(F)(F)F)c2)s1 [Example 32, 1-[(2-ethyl-3-{2-[4-[(1-methylethyl)oxy]-3-(trifluoromethyl)phenyl]-1,3-thiazol-5-yl}phenyl)methyl]-4-piperidinecarboxylic acid]"
< 1,> 3160,CCc1c(CCN2CCCC(C(=O)O)C2)cccc1-c1nnc(-c2ccc(OC(C)C)c(Cl)c2)s1 (stereo not drawn) [Example 56]
< 1,> 10000,"CCc1c(CN2CC(C(=O)O)C2)cccc1-c1cnc(-c2ccc(OC(C)C)c(Cl)c2)s1 [Example 39, 1-{[3-(2-{3-chloro-4-[(1-methylethyl)oxy]phenyl}-1,3-thiazol-5-yl)-2-ethylphenyl]methyl}-3-azetidinecarboxylic acid trifluoroacetate]"
< 100,> 10000,"CCc1c(CN2CCC(C(=O)O)CC2)cccc1-c1cnc(-c2ccc(OC(C)C)c(Cl)c2)s1 [Example 36, 1-{[3-(2-{3-chloro-4-[(1-methylethyl)oxy]phenyl}-1,3-thiazol-5-yl)-2-ethylphenyl]methyl}-4-piperidinecarboxylic acid trifluoroacetate]"
≤ 10,> 10000,CCc1c(CN2CCC(C(=O)O)C2)cccc1-c1cnc(-c2ccc(OC(C)C)c(C#N)c2)s1 (stereo not drawn) [Example 83]

# Further lines, the compound ahead of its results:
Structure (SMILES),EC50 [1] [nM],EC50 [2] [nM]
"CCc1c(CCN2CC(C(=O)O)C2)cccc1-c1cnc(-c2ccc(OC(C)C)c(Cl)c2)s1 [Example 41, 1-{2-[3-(2-{3-chloro-4-[(1-methylethyl)oxy]phenyl}-1,3-thiazol-5-yl)-2-ethylphenyl]ethyl}-3-azetidinecarboxylic acid trifluoroacetate]",< 1,> 3160
"CCc1c(CCN2CCC(C(=O)O)CC2)cccc1-c1nsc(-c2cnc(OC(C)C)c(Cl)c2)n1 [Example 75, 1-{2-[3-(5-{5-chloro-6-[(1-methylethyl)oxy]-3-pyridinyl}-1,2,4-thiadiazol-3-yl)-2-ethylphenyl]ethyl}-4-piperidinecarboxylic acid trifluoroacetate]",≤ 10,> 3160
CCc1c(CCN2CCCC(C(=O)O)C2)cccc1-c1cnc(-c2ccc(OC(C)C)c(C#N)c2)s1 (stereo not drawn) [Example 92],< 1,> 3160
"CCc1c(CCN2CC(C(=O)O)C2)cccc1-c1nsc(-c2ccc(OC(C)C)c(C#N)c2)n1 [Example 26, 1-{2-[3-(5-{3-cyano-4-[(1-methylethyl)oxy]phenyl}-1,2,4-thiadiazol-3-yl)-2-ethylphenyl]ethyl}-3-azetidinecarboxylic acid trifluoroacetate]",< 1,> 3160
CCc1c(CCN2C[C@H](O)C[C@H]2C(=O)O)cccc1-c1cnc(-c2ccc(OC(C)C)c(C#N)c2)s1 [Example 91],≤ 10,> 10000
"CCc1c(CN2CC(C(=O)O)C2)cccc1-c1nsc(-c2ccc(OC(C)C)c(C#N)c2)n1 [Example 17, 1-{[3-(5-{3-cyano-4-[(1-methylethyl)oxy]phenyl}-1,2,4-thiadiazol-3-yl)-2-ethylphenyl]methyl}-3-azetidinecarboxylic acid trifluoroacetate]",≤ 10,> 3160
CCc1c(CN2CCCC(C(=O)O)C2)cccc1-c1nnc(-c2ccc(CC(C)C)c(C#N)c2)s1 (stereo not drawn) [Example 50],≤ 10,> 10000
CCc1c(CCN2CCC[C@H](C(=O)O)C2)cccc1-c1nnc(-c2ccc(CC(C)C)c(C#N)c2)s1 [Example 64],< 1,> 3160
CCc1c(CN2CCC[C@H](C(=O)O)C2)cccc1-c1nnc(-c2ccc(CC(C)C)c(C#N)c2)s1 [Example 51],< 1,> 10000
"CCc1c(CCN2CCC[C@H]2C(=O)O)cccc1-c1nnc(-c2ccc(CC(C)C)c(C#N)c2)s1 [Example 59, 1-[2-(3-{5-[3-cyano-4-(2-methylpropyl)phenyl]-1,3,4-thiadiazol-2-yl}-2-ethylphenyl)ethyl]-L-proline]",≤ 10,> 10000
CCc1c(CCN2CCC(CC(=O)O)CC2)cccc1-c1nsc(-c2ccc(OC(C)C)c(Cl)c2)n1 [Example 72],≤ 10,> 3160
"COc1c(CCN2CC(C(=O)O)C2)cc(F)cc1-c1nnc(-c2ccc(OC(C)C)c(C(F)(F)F)c2)s1 [Example 14, 1-{2-[5-fluoro-3-{5-[4-[(1-methylethyl)oxy]-3-(trifluoromethyl)phenyl]-1,3,4-thiadiazol-2-yl}-2-(methyloxy)phenyl]ethyl}-3-azetidinecarboxylic acid]",≤ 10,> 10000
"COc1c(CCN2CCC(C(=O)O)CC2)cccc1-c1nsc(-c2ccc(OC(C)C)c(Cl)c2)n1 [Example 73, 1-{2-[3-(5-{3-chloro-4-[(1-methylethyl)oxy]phenyl}-1,2,4-thiadiazol-3-yl)-2-(methyloxy)phenyl]ethyl}-4-piperidinecarboxylic acid trifluoroacetate]",≤ 10,> 3160
